Results: ChEMBL document CHEMBL1201862, “PubChem BioAssay data set” (2004)
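Five concentrations, 48 hours, 96-well plates. GI50 = concentration required for 50% inhibition of growth.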 Activity calls are given as the source filed them. No stated cut-off is given here; in the data, active = GI50 up to about 1.1 µM and inactive = higher.

What was measured:
Assay in all cases: DTP human tumour cell line panel, 48 h
A498 = system: A498
ACHN = system: ACHN
COLO 205 = system: COLO 205
DU-145 = system: DU-145
HCT-15 = system: HCT-15
HOP-92 = system: HOP-92
LOX IMVI = system: LOX IMVI
MCF7 = system: MCF7
MDA-MB-231 = system: MDA-MB-231
MOLT-4 = system: MOLT-4
RXF 393 = system: RXF 393
SK-MEL-28 = system: SK-MEL-28
SK-MEL-5 = system: SK-MEL-5
SNB-19 = system: SNB-19
T47D = system: T47D
TK-10 = system: TK-10
U-251 = system: U-251
Hs-578T = system: Hs-578T
KM12 = system: KM12
SNB-75 = system: SNB-75

Compound	GI50 (A498)	GI50 (ACHN)	GI50 (COLO 205)	GI50 (DU-145)	GI50 (HCT-15) [µM]	GI50 (HOP-92)	GI50 (LOX IMVI)	GI50 (MCF7)	GI50 (MDA-MB-231)	GI50 (MOLT-4)	GI50 (RXF 393)	GI50 (SK-MEL-28)	GI50 (SK-MEL-5)	GI50 (SNB-19)	GI50 (T47D)	GI50 (TK-10)	GI50 (U-251)	GI50 (Hs-578T)	GI50 (KM12)	GI50 (SNB-75)
CCOC(=O)c1c(C)cc(=O)n2c1[nH]c1ccccc12	40.3 µM (inactive)	42.5 µM (inactive)	> 100 µM (inactive)	> 100 µM (inactive)	50.9	> 100 µM (inactive)	> 100 µM (inactive)	> 100 µM (inactive)	36.6 µM (inactive)	> 100 µM (inactive)	> 100 µM (inactive)	> 100 µM (inactive)	> 100 µM (inactive)	88.3 µM (inactive)	> 100 µM (inactive)	99.3 µM (inactive)	34.6 µM (inactive)	–	–	–
CCOC(=O)C1=C(N)N(c2ccccc2)/C(=C2\SC(=S)N(c3ccc(C)cc3)C2=O)S1	31.4 µM (inactive)	76 µM (inactive)	> 100 µM (inactive)	89.9 µM (inactive)	> 100	30.5 µM (inactive)	–	87.5 µM (inactive)	22.6 µM (inactive)	60.8 µM (inactive)	–	23.4 µM (inactive)	54.8 µM (inactive)	29.7 µM (inactive)	–	48.4 µM (inactive)	29.6 µM (inactive)	25 µM (inactive)	> 100 µM (inactive)	3.99 µM (inactive)
O=c1nc(N2CCCCC2)sc2[nH]c3ccccc3c12	> 100 µM (inactive)	> 100 µM (inactive)	> 100 µM (inactive)	> 100 µM (inactive)	> 100	55.3 µM (inactive)	74.8 µM (inactive)	–	78.7 µM (inactive)	> 100 µM (inactive)	–	> 100 µM (inactive)	> 100 µM (inactive)	63.1 µM (inactive)	> 100 µM (inactive)	66.2 µM (inactive)	96.4 µM (inactive)	> 100 µM (inactive)	> 100 µM (inactive)	> 100 µM (inactive)
NS(=O)(=O)c1nc(S(=O)(=O)O)c2[nH]cnc2n1	> 100 µM (inactive)	> 100 µM (inactive)	> 100 µM (inactive)	–	> 100	> 100 µM (inactive)	> 100 µM (inactive)	> 100 µM (inactive)	> 100 µM (inactive)	29 µM (inactive)	> 100 µM (inactive)	> 100 µM (inactive)	> 100 µM (inactive)	> 100 µM (inactive)	> 100 µM (inactive)	> 100 µM (inactive)	> 100 µM (inactive)	> 100 µM (inactive)	> 100 µM (inactive)	> 100 µM (inactive)
O=c1c2cc([N+](=O)[O-])ccc2n2n1Cc1ccccc1CC2	> 100 µM (inactive)	> 100 µM (inactive)	> 100 µM (inactive)	> 100 µM (inactive)	> 100	–	> 100 µM (inactive)	> 100 µM (inactive)	> 100 µM (inactive)	> 100 µM (inactive)	> 100 µM (inactive)	> 100 µM (inactive)	> 100 µM (inactive)	> 100 µM (inactive)	–	38.1 µM (inactive)	> 100 µM (inactive)	74.8 µM (inactive)	> 100 µM (inactive)	–
Cc1cc(OCC(=O)N/N=C/C(Br)=C/c2ccccc2)nc(SCC(=O)N/N=C/C(Br)=C/c2ccccc2)n1	> 100 µM (inactive)	> 100 µM (inactive)	39.1 µM (inactive)	58.3 µM (inactive)	> 100	24.9 µM (inactive)	> 100 µM (inactive)	75.7 µM (inactive)	–	–	49.1 µM (inactive)	> 100 µM (inactive)	> 100 µM (inactive)	> 100 µM (inactive)	–	–	> 100 µM (inactive)	39.9 µM (inactive)	39.9 µM (inactive)	–
O=C(CP(=O)(c1ccccc1)c1ccccc1)c1cccc(C(=O)CP(=O)(c2ccccc2)c2ccccc2)c1	–	> 100 µM (inactive)	> 100 µM (inactive)	> 100 µM (inactive)	> 100	–	–	98.6 µM (inactive)	> 100 µM (inactive)	> 100 µM (inactive)	24.7 µM (inactive)	> 100 µM (inactive)	> 100 µM (inactive)	29.2 µM (inactive)	76 µM (inactive)	48.6 µM (inactive)	> 10 µM (inactive)	25.6 µM (inactive)	> 100 µM (inactive)	20.4 µM (inactive)
CCOC(=O)c1nc2cc(F)c(F)cc2nc1NCc1cc(OC)c(OC)c(OC)c1	> 100 µM (inactive)	> 100 µM (inactive)	> 100 µM (inactive)	> 100 µM (inactive)	> 100	50.7 µM (inactive)	> 100 µM (inactive)	> 100 µM (inactive)	–	> 100 µM (inactive)	30.1 µM (inactive)	> 100 µM (inactive)	76.7 µM (inactive)	42.5 µM (inactive)	> 100 µM (inactive)	> 100 µM (inactive)	35.9 µM (inactive)	50.7 µM (inactive)	> 100 µM (inactive)	16.5 µM (inactive)
